Source: US5827836A, “Retinoid glycerol phospholipid conjugates” (Clarion Pharmaceuticals Inc., priority 1996, dated 1998)
Like-named read-outs stand apart in the source and are kept apart here.

Key:
[1] = test system: human tumor cell line HL-60; assay: HL-60 cell proliferation (in vitro HL-60 cell inhibition assay, SRB); type: cell-based; settings: particularly against leukemia
Method: (§1) Use of the HL-60 cell line in evaluating the anti-tumor activity of retinoids is reported in the literature, for example, see Janick-Buckner, D. et al.,FASEB J. 5:320-325; 1991
(§2) 1. Human tumor cell line HL-60 (ATCC CCL 240), obtainable from the American Type Culture Collection (ATCC), a promyelocytic leukemia cell line.
(§3) 2. Culture media: Roswell Park Memorial Institute-1640 (RPMI-1640) plus 10% Fetal Bovine Serum (FBS).
(§4) 3. Standard protocol for culturing cell lines: in T-75 or T-150 flasks; 37° C.; 95% air, 5% CO2; 100% humidity.
(§5) a. The HL 60 cell line is passaged by removing approximately 75% of the media and cell mixture and adding an equal amount of fresh media once or twice a week.
b. […]
j. Read absorbance at 562 nm using a standard 96-well microtiter plate reader. Absorbance readings are linear with dye concentrations below 1.8 absorbance units. To reduce absorbance, decrease wavelength at which measurements are taken;
single point reading; the higher the absorbance, the higher the cell number; […]
initial control cell number (ICCN)-no test compound present in culture medium, end point determined at the time of treatment;
final control cell number (FCCN)-no test compound present in culture medium, end point determined at 72 hours after treatment;
final cell number (FCN)-test compound present in culture medium, end point determined at 72 hours after treatment; […]

[2] = test system: human tumor cell line HL-60; assay: HL-60 cell viability (trypan blue exclusion); type: cell-based; settings: for cell viability (in words): HL-60, compared to retinoic acid; for viability at 10 µM / viability at 30 µM / viability at 100 µM: Homo sapiens
Method: as §1, §2, §3, §4, §5
b. All procedures are performed aseptically in a Class II biological safety cabinet using standard BL-2 containment procedures. At approximately monthly intervals, fresh cells are thawed from liquid nitrogen storage in order to prevent genetic drift in stock cell lines.
a. after cell passage, count cells with a hemacytometer;
b. adjust concentration to approximately 20,000 cells per 100 μL;
C. pipette 100 μL cell suspension per well of a standard 96-well microtiter plate;
d. add test compound dissolved in phosphate buffered saline (PBS), or in DMSO for the comparative compound, retinoic acid, for final concentration levels ranging from 0 to 100 μM;
e. adjust volume to 200 μL/well by adding RPMI-1640;; and
f. incubate 72 hours under standard culture conditions and determine end points.
6. End Point 2: Cell Viability:
a. Add 100 μL/well of 0.5% (w/v) trypan blue in PBS.
b. Using a hemacytometer, determine the percent viable cells by calculating the ratio of cells that exclude trypan blue to the total number of cells.

[3] = test system: PAM-212 murine keratinocyte cell line; assay: Anti-psoriatic activity by inhibition of keratinocyte proliferation (PAM-212, SRB); type: cell-based, murine (BALB/c mice); settings: for minimal effective concentration: Mus musculus, PAM212, PAM-212, 72 hours, FIG. 2, read-out: concentration at which marked inhibition of cell growth is seen; for inhibition of keratinocyte proliferation (in words): in vitro
Method: Assay for Anti-psoriatic Activity by Inhibition of Keratinocyte Proliferation:
1. Cell line: PAM-212 murine keratinocyte cell line isolated and cultivated from newborn BALB/c mice (see S. H. Yuspa et al., Cancer Research, 40, 4694-4703, December, 1980) that appears to retain many characteristics of normal keratinocytes.
2. Culture medium: 1:1 DMEM and Ham's F-12 with 10% FBS.
3. Standard protocol for culturing cell lines; in T-75 or T-150 flasks; 37° C.; 95% air, 5% CO2; 100% humidity. Cell line PAM-212 is passaged when approximately 80% confluent; with trypsin (1 mg/mL) and EDTA (1 mM EDTA in Ca-Mg free Hank's balanced salt solution); at a 1:4 to 1:5 split.
a. All procedures are performed aseptically in a Class II biological safety cabinet using standard BL-2 containment procedures. At approximately monthly intervals, fresh cells are thawed from liquid nitrogen storage in order to prevent genetic drift in stock cell lines.
After cell passage, count cells with a hemacytometer;
a. Adjust concentration to approximately 1,000 cells per 100 μL;
b. Pipette 100 μL cell suspension per well of a standard 96-well microtiter plate;
c. Preincubate 24 hours to allow cells to attach;
d. Add test compound dispersed in phosphate buffered saline (PBS), or in DMSO for the comparative compound, retinoic acid, to achieve final concentration levels ranging from 0 to 100 μM;
e. Adjust volume to 200 μL/well by adding DMEM/F12; and
f. Incubate 72 hours under standard culture conditions and determine end points.
Remove media and add 100 μL/well of cold (4° C.) 10% (w/v) trichloroacetic acid (TCA) in water;
a. After 1 hour at 4° C., remove TCA and rinse cells 5 times with tap water;
c. Add 50 μL/well of 0.4% (w/v) sulforhodamine B (SRB) in 1% (v/v) acetic acid in water;
d. After 30 minutes at room temperature, rinse cells 4 times with 1% (v/v) acetic acid in water to remove residual stain;
f. Dissolve stain by adding 100 μL/well of unbuffered Tris base, pH 10.5;
g. Read absorbance at 562 nm using a standard 96-well microtiter plate reader. Absorbance readings are linear with dye concentrations below 1.8 absorbance units. To reduce absorbance, decrease wavelength at which measurements are taken.
single point reading; the higher the absorbance, the higher the cell number;
a. background-no cell and no test compound present in culture medium;
b. control-no test compound present in culture medium;
c. initial control cell number (ICCN)-no test compound present in culture medium, end point determined at the time of treatment;
d. final control cell number (FCCN)-no test compound present in culture medium, end point determined at 72 hours after treatment;
e. final cell number (FCN)-test compound present in culture medium, end point determined at 72 hours after treatment;
ICCN=A(control, zero hour)-A(background) […]

[4] = test system: RAW 264.7 murine monocyte/macrophage line; assay: Anti-inflammatory activity by inhibition of macrophage chemiluminescence (respiratory burst, PMA-stimulated, luminol); type: cell-based; settings: for minimal effective concentration: PMA-stimulated RAW 264.7, read-out: concentration at which marked inhibition of luminescence is seen
Source text: Assay for Anti-inflammatory Activity by Inhibition of Macrophage Chemiluminescence
The RAW 264.7 cell line (available from the ATCC under accession no. TIB 71) is a murine monocyte/macrophage line the cells of which show many of the differentiative functions of a macrophage. Like macrophages, the cells are capable of phagocytosis and undergo an oxidative burst (increased oxygen consumption) and production of oxygen radicals (e.g., superoxide) in response to appropriate signals. Agents that inhibit the activation of these cells in vitro, so as to inhibit the respiratory burst and corresponding production of oxygen radicals associated with the activation, are therefore inhibitors of macrophage activation and critical steps in inflammatory processes. These agents are likely, then to be anti-inflammatories.
The respiratory burst and corresponding production of oxygen radicals that accompany macrophage activation can be measured in a variety of ways, including chemiluminescence based on the reaction of the oxygen radicals with luminol added to the culture medium (see M. A. Trush et al, 1978, "The Generation of Chemiluminescence by Phagocytic Cells." Methods in Enzymology 57: 462-494). Indeed, chemiluminescence generated from luminol in the culture medium of macrophage cell lines is recognized in the art as a marker of macrophage activation.
Cell line: RAW 264.7 (ATCC TIB 71);
1. Culture medium: DMEM with 5% FBS (attachment dependent);
2. Standard protocol for culturing cell lines: in T-75 or T-150 flasks; 37° C.; 95% air, 5% CO2; 100% humidity;
3. Cell lines are passaged when approximately 80% confluent; with trypsin (1 mg/mL) and EDTA ([…] in Ca-Mg free Hank's balanced salt solution); at a 1:4 to 1:5 split;
4. Trypsinize the cells and count with a hemacytometer;
5. Adjust concentration of cells to approximately 1,000,000 cells per mL;
6. Suspend cells in DMEM lacking phenol red and without FBS;
7. Pipette 1 mL into a standard luminometer cuvet (12×75), commercially obtainable from Analytical Luminescence Laboratories, San Diego;
8. Add luminol to final concentration of 1 μM;
9. Add test compound (0, 1, 3, 10, 30 μM);
10. Add 100 nanograms of phorbol myristate acetate (PMA);
11. Wait 1 minute and read photo counts (i.e., luminescence) on a Monolight 2010 luminometer available from Analytical Luminescence Laboratories;
The results are represented in Table 2, which illustrates the marked inhibition of luminescence by the compounds tested (CPR 2003 and CPR 2004) at concentrations above 3 μM. Results are calculated as percent of control (no test compound present).

[5] = R. Andreesen, Prog. Biochem. Pharmacol., 22, 118-131; cited from earlier work
[6] = Liposome formation in PBS; type: physicochemical; settings: sonication
Source text: Solutions of the subject compounds of Formula (I) in PBS (phisphate-buffered saline) have characteristics indicative of the presence of liposomes. These preparations require sonication in order to form uniform, cloudy suspensions. The requirement for sonication and the cloudy appearance of the suspensions are some known properties of liposomal preparations. Additionally, foam generation, which is associated with micellar suspensions, is not a property of these preparations.

[7] = RAW264.7, PMA-stimulated mouse macrophages, 1 μM, read-out: % Inhibition of respiratory burst
[8] = RAW264.7, PMA-stimulated mouse macrophages, 3 μM, read-out: % Inhibition of respiratory burst
[9] = RAW264.7, PMA-stimulated mouse macrophages, 10 μM, read-out: % Inhibition of respiratory burst
[10] = RAW264.7, PMA-stimulated mouse macrophages, 30 μM, read-out: % Inhibition of respiratory burst
[11] = Mus musculus, RAW264.7, read-out: % Inhibition of respiratory burst

CCCCCCCCCCCCCCCCCCOCC(COP(=O)([O-])OCC[N+](C)(C)C)OC(=O)/C=C(C)/C=C/C=C(C)/C=C/C1=C(C)CCCC1(C)C (stereo not drawn) [CPR 2003, 1-O-n-Octadecyl-2-(all-trans-retinoyl)-glycero-3-phosphocholine]
anti-tumor or anti-cancer activity (in words) [1]: marked anti-tumor or anti-cancer activity | cell viability (in words) [2]: relatively high cell viability | viability at 10 µM ([2]; HL-60, 72 h): 97% | viability at 30 µM ([2]; HL-60, 72 h): 93% | viability at 100 µM ([2]; HL-60, 72 h): 97% | minimal effective concentration [3]: > 1 µM | inhibition of keratinocyte proliferation (in words) [3]: markedly inhibit proliferation of these cells in vitro | reduction of macrophage activation (in words) [4]: markedly reduce macrophage activation | minimal effective concentration ([4]; Mus musculus, RAW264.7): > 3 µM | inhibition at 1 µM [4, 7]: 19% | inhibition at 3 µM [4, 8]: 40% | inhibition at 10 µM [4, 9]: 81% | inhibition at 30 µM [4, 10]: 99%

CCCCCCCCCCCCCCCCCCOCC(COC(=O)/C=C(C)/C=C/C=C(C)/C=C/C1=C(C)CCCC1(C)C)OP(=O)([O-])OCC[N+](C)(C)C (stereo not drawn) [CPR 2004, 1-O-n-Octadecyl-3-(all-trans-retinoyl)-glycero-2-phosphocholine]
anti-tumor or anti-cancer activity (in words) [1]: marked anti-tumor or anti-cancer activity | cell viability (in words) [2]: relatively high cell viability | viability at 10 µM ([2]; HL-60, 72 h): 92% | viability at 30 µM ([2]; HL-60, 72 h): 94% | viability at 100 µM ([2]; HL-60, 72 h): 59% | minimal effective concentration [3]: > 10 µM | inhibition of keratinocyte proliferation (in words) [3]: markedly inhibit proliferation of these cells in vitro | reduction of macrophage activation (in words) [4]: markedly reduce macrophage activation | minimal effective concentration ([4]; Mus musculus, RAW264.7): > 3 µM | inhibition at 1 µM [4, 7]: 14% | inhibition at 3 µM [4, 8]: 55% | inhibition at 10 µM [4, 9]: 93% | inhibition at 30 µM [4, 10]: 99%

CCCCCCCCCCCCCCCCCCOC[C@H](COP(=O)([O-])OCC[N+](C)(C)C)OC [ET 18-OCH3, 1-O-octadecyl-2-O-methyl-sn-glycero-3-phosphocholine]
anti-tumor activity (in words) [5]: markedly potent anti-tumor activity

CC1=C(/C=C/C(C)=C/C=C/C(C)=C/C(=O)O)C(C)(C)CCC1 [Retinoic Acid, retinoic acid, reference compound]
viability at 10 µM ([2]; HL-60, 10 μM, 72 hours, read-out: % Viability): 87% | viability at 30 µM ([2]; HL-60, 30 μM, 72 hours, read-out: % Viability): 70% | viability at 100 µM ([2]; HL-60, 100 μM, 72 hours, read-out: % Viability): 0% | inhibition at 1 µM [4, 11]: 2% | inhibition at 3 µM [4, 11]: 6% | inhibition at 10 µM [4, 11]: 3% | inhibition at 30 µM [4, 11]: 6% | liposome formation (in words) [6]: unlike retinoic acid, the subject compounds are capable of forming liposomes
